# In patent US20250034264A1, “REGULATING T CELL IMMUNE RESPONSE THROUGH IGF-I RECEPTOR (IGF-1R)” (The Regents of the University of Michigan, priority 2021, published 2025):
# Experiments:
# Format in all cases: cell-based, human
# CD34+ fibrocytes = assay: MHC II, CD80, CD86, PD-L1 expression in cultured fibrocytes (RT-qPCR, flow cytometry)
# Excerpt: Fibrocyte and T cell isolation and cultivation. Peripheral blood mononuclear cells (PBMCs) were obtained from the venous circulation of clinic patients with GD, TAO or from healthy donors after obtaining informed consent. PBMCs were also obtained from Red Cross donor plasmapheresis filters. They were isolated by Ficoll-Histopaque (Sigma-Aldrich, St. Louis, MO) density gradient centrifugation. Fibrocytes were cultivated as described (Bucala, R, et al., (1994) Mol Med 1, 71-81, incorporated herein by reference in its entirety) except that culture substrata remained uncoated with fibronectin, as previously described (Douglas, R. S., et al. (2010) The Journal of clinical endocrinology and metabolism 95, 430-438). Isolated PBMCs (1×10^6-1×107) were inoculated in six-well plates covered with DMEM containing 10% FBS and incubated in 10-14 days. Adherent monolayers (<5% of the starting population) were washed with PBS and detached using accutase (Millipore) treatment, or mechanical scraping following accutase treatment. Culture purity was routinely confirmed by FACS analysis to be >90% fibrocytes by confirming the CD31^−CD45^+CD34^+CXCR4^+Col I^+TSFR^high phenotype.
# Invariably, a small population of tightly adherent T cells were found in the fibrocyte cultures, consistent with the previous findings. Culture viability was routinely verified to be >90%. CD4^+ T cells were enriched using the CD4 isolation cocktail (Cat #0.130-096-533, Miltenyi Biotec, San Diego, CA) followed by negative selection using a magnetic column (Cat #0.130-042-401) according to manufacturer's protocol. Fibrocytes and isolated T cells were cultured and remained untreated or were incubated with human IgG isotype control (5 μg/ml) or teprotumumab (50 μg/mL) for 7 to 9 days. Single cell suspensions were stained with anti-human CD4, CD3, CD34, MHC-2, CD80, CD86, and PD-L1 (BD Biosciences) for 30 min, rinsed and fixed with CytoPerm/CytoFix (BD). They were then stained with anti-human INFγ and IL-17A for 20 min, rinsed, and subjected to the flow cytometry analysis. Gated CD34^+CXCR4^+ fibrocytes and CD4^+CD3^+ T cells were analyzed using quadrant settings based on negative isotype staining.
# In vitro studies of CD34^+ fibrocytes and T cells PBMC and GD-OF monolayers were treated in vitro with human IgG isotype control (5 μg/ml), teprotumumab (50 μg/mL), H7 (5 μg/mL), linsitinib (1 μM), bTSH (5 mIU/mL), M22 (1 μg/mL), or IGF-1 (10 nM) for the intervals indicted in the figure legends in a 37° C., 5% CO2, humidified incubator until confluent. Brefeldin A (0.66 μl/ml), (Golgi Stop™, BD Biosciences), phorbol 12-myristate 13-acetate (PMA) (50 ng/ml) and ionomycin (1 μg/mL) were added for 5 h. Cells were rinsed with flow cytometry buffer (1×PBS, 0.5% BSA, 0.1% sodium azide) and stained with the relevant monoclonal antibodies.
# (§1) Real-time PCR Confluent fibrocyte and GD-OF cultures were incubated with bTSH (5 mIU/mL), teprotumumab (50 μg/mL) or linsitinib (1 μM) for the time intervals indicated, washed with PBS and RNA was extracted with the Aurum Total RNA Mini Kit (cat. #732-6820, Bio-Rad, Hercules, CA). Cellular RNA (2 μg) was reverse transcribed using QuantiTect Reverse Transcription kit (cat. #205314, Qiagen (Germantown, MD) and real-time PCR was performed using an Applied Biosystems instrument with QuantiTect SYBR Green PCR kit (cat. no. 204143; Qiagen, Frederick, MD). Primer sequences were as follows.
# fibrocytes [1] = assay: AIRE and thyroid autoantigen (Tg, TPO, NIS) mRNA expression; conditions: 50 μg/mL 7-9 days; bTSH 5 mIU/mL 6 h; vs isotype control mAb
# Procedure: FIGS. 9A-9D are graphs showing the effect of teprotumumab on bovine thyrotropin or thyroid-stimulating hormone (bTSH) induced thyroid specific genes thyroglobulin (Tg), sodium iodide symporter (NIS), thyroperoxidase (TPO), and autoimmune regulator protein (AIRE) in fibrocytes. Confluent fibrocyte cultures were treated with or without teprotumumab (50 μg/ml) and human Isotype IgG for 7-9 d, followed by bTSH (5 mIU/mL) for 6 h. Monolayers were washed with PBS and RNA was extracted and reverse transcribed. Harvested cDNA was subjected to quantitative real-time PCR for AIRE (FIG. 9A), Tg (FIG. 9B), TPO (FIG. 9C), and NIS (FIG. 9D) mRNA levels. Values were normalized to their respective GAPDH levels and are expressed as the mean f SD of three independent determinations. Experiments were repeated three times. *, P<0.05; **, p<0.01.
# as §1
# fibrocytes [2] = assay: RNA Pol II ChIP transcription assay; conditions: 50 μg/mL
# Procedure: RNA Pol II ChIP transcription assay Transcriptional assays were performed using the method of Wells and Farnham (Methods (San Diego, Calif.) 26, 48-56(2002). Confluent cultures were treated with human Isotype IgG or teprotumumab (50 μg/mL) in DMEM with 10% FBS for 3 d, rinsed, and shifted to DMEM with 1% FBS for 16 h with the respective additives, and then treated without or with bTSH (5 mU/mL) for 2 h. Cross-linked protein/DNA and isolated chromatin fragments were immunoprecipitated with target antibodies: anti-HLA-DPB1 [EPR11226] (cat. #abl57210), anti-CD80 [EPR22183] (cat. #ab225674), anti-CD86 [EPR21962] (cat. #ab239075), and anti-PD-L1 [EPR19759](cat. #ab213524),) from Abcam (Cambridge, MA) using the Pierce™ Agarose Chip Kit (Thermo Scientific, cat #26156). Eluted fractions were reverse cross-linked and isolated DNA subjected to RT-PCR using EpiTect ChIP qPCR Primer Assay for human HLA-DRA (cat. #GPH1011269(-)02A, HLA-DRB1 (cat. #GPH1024837(-)02A), CD80 (cat. #GPH1023189(-)02A), CD86 (cat. #GPH1009502(-)02A), PD-L1 (cat. #GPH1012902(-)02A, Qiagen. GAPDH served as the housekeeping gene and values were generated according to the protocol provided by the supplier.
# [3] = fibrocytes from GD patients (n=28), 50 μg/mL, 9 d
# [4] = teprotumumab 50 μg/mL, time-dependent over 9 d treatment
substance,measurement,setting,value
teprotumumab,"effect on MHC II, CD80, CD86, PD-L1 expression, teprotumumab compared with TSHR inhibitor ML224","CD34+ fibrocytes; 9 d, single agents and in combination",effective
same,"surface proteins MHC II, CD80, CD86, PD-L1 at 9 days",CD34+ fibrocytes; 9 days,uniformly reduced to levels of detectability or below
same,"induction of MHC II, CD80, CD86, PD-L1 surface proteins",CD34+ fibrocytes; bTSH-treated fibrocytes,blocked
same,frequency of CD34+ fibrocytes,CD34+ fibrocytes; cultures from GD patients and healthy controls,unaffected
same,reduction in level of CD80 cell-surface protein,CD34+ fibrocytes; [3],52%
same,reduction in level of CD86 cell-surface protein,CD34+ fibrocytes; [3],49%
same,reduction in level of MHC II cell-surface protein,CD34+ fibrocytes; [3],57%
same,reduction in level of PD-L1 cell-surface protein,CD34+ fibrocytes; [3],47%
same,"induction of MHC II, CD80, CD86, PD-L1 mRNA by bTSH and M22","CD34+ fibrocytes; teprotumumab 50 μg/mL, 1H7 5 μg/mL, linsitinib 1 μM",blocked
same,"protein levels of MHC II, CD80, CD86, PD-L1",CD34+ fibrocytes; [4],substantially reduced
same,"steady-state mRNA levels of MHC II, CD80, CD86, PD-L1",CD34+ fibrocytes; [4],substantially reduced
same,AIRE basal expression and induction by bTSH,fibrocytes [1],inhibited
same,NIS basal expression and induction by bTSH,fibrocytes [1],inhibited
same,TPO basal expression and induction by bTSH,fibrocytes [1],inhibited
same,Tg basal expression and induction by bTSH,fibrocytes [1],inhibited
same,"basal and bTSH-induced transcription of MHC II, CD80, CD86, PD-L1 genes",fibrocytes [2],attenuated
